Key:
[1] = test system: microbless pig mini-sucklings; assay: growth stimulant efficiency in microbless pig mini-sucklings (Example 8, Table 3); format: in vivo
Description: The efficiency of the growth stimulant for animals according to the present invention was tested in feeding of microbless animals. The test was carried out in microbless pig mini-sucklings grown without under sterile conditions in a comparison with pig mini sucklings grown keeping to the requirements of sterile conditions, since birth and to the age of two-months, a feedstuff containing 0.04% by weight of the active principle. Their growth was compared to that of 10 sucklings grown without keeping to sterility conditions and the development of 7 microbless pig sucklings. By the end of the experiment the test pig sucklings were 17.2% heavier than the microbless pig sucklings given no growth stimulant and 18.2% heavier than the sucklings grown under nonsterile conditions and given no growth stimulator.

[2] = test system: chicks; assay: growth stimulant efficiency in chicks, 0.04% in feedstuff (Example 7, Table 2); format: in vivo; conditions: 0.04% by weight in feedstuff
Description: (§1) The growth stimulator for animals and fowl containing 3-(2,2,2-trimethylhydrazinium)-propionate as the active principle is tested for efficiency. The test is conducted in chicks of 6 days of age, the test group consisting of 50 chicks and the control group--50 chicks. The test chicks were fed with a feedstuff containing 0.02% by weight of the active principle, the control group--only basic diet without the addition of the active principle. The chicks' diet contained, % by weight: barley--20, wheat--6, corn--40, sunflower and soya-bean grist--19, fish flour--7, meat-bone flour--3, yeast--5. One kilogram of the feedstuff contained 1.25 feeding unit, 3,135 kCal of exchange energy, 21% of a crude protein, 4% of crude cellulose and 197 g of digestable protein.
The experiment for testing efficiency of the growth stimulant for animals and fowl according to the present invention was carried out following the procedure similar to that described in the foregoing Example 6; added to the feedstuff was 0.04% by weight of the active principle based on the feedstuff weight. By the end of the 34-days' period the chicks of the test groups fed with the growth stimulant were 12.9% heavier.

[3] = test system: pubertal rats; assay: growth stimulator efficiency in pubertal rats (Example 11, Table 6); format: in vivo, rat
Description: (§2) The efficiency of the growth stimulator was studied on young rats. The experiment was carried out with nondescript young rats weighting about 75 g in groups of 30 animals in each. The growth stimulator was administered perorally to each rat as an aqueous solution at a rate of from 0.1 to 0.001% by weight of the consumed daily diet. The administration of the growth stimulator was effected every day during 10 days. The observation period was 20 days; the rats were weighed after every 4 days. […] On completion of the experiment the animals were killed and the parenchymatous organs and peripheral blood were analyzed.
The growth stimulator efficiency was studied on pubertal rats. The experiment conditions were similar to those described in the foregoing Example 10.

[4] = test system: barley, oats, rye and wheat; assay: growth-controlling activity on plants; format: in vivo
Text: (§3) The study of specific activity of 3-(2,2,2-trimethylhydrazinium)-propionatewas effected on various animals: mice, rats, pigs, cattle, chickens, goslings, turkey poults and ducklings. The growth-controlling activity of this compound relative to plats has been studied on barley, oats, rye and wheat.

[5] = test system: animals and fowl; assay: specific (growth-stimulating) activity on animals and fowl, general; format: in vivo
Text: as §3

[6] = test system: white-breed young pigs; assay: growth stimulator efficiency in white-breed young pigs (Example 9, Table 4); format: in vivo, pig; conditions: 0.02% by weight, 122 days
Description: The efficiency of the growth stimulator was tested on white-breed young pigs deprived of mother's milk with the body weight of about 20 kg, […], in each group.
The young pigs were in the same pig sty and serviced by one operator; all of the animals were on the same diet consisting of barley flour, green mass of a vetch-oat mixture and whey. The animals were fed two times a day with free watering. To the feedstuff of the test group there were added 200 mg of 3-(2,2,2-trimethylhydrazinium)propionate per 1 kg of dry substance of the feed-stuff (0.02% by weight of the active principle).

[7] = test system: young rats; assay: growth stimulator efficiency in young rats (Example 10, Table 5); format: in vivo, rat
Description: as §2

[8] = test system: chicks; assay: growth stimulator efficiency in chicks, 0.02% in feedstuff (Example 6, Table 1); format: in vivo; conditions: 0.02% by weight in feedstuff
Description: as §1

[9] = solubility; format: physicochemical
Description: The compound according to the present invention, viz. 3-(2,2,2-trimethylhydrazinium)propionate comprises a colourless crystalline powder with a melting point of 254°-256° C. (from ethanol). […] (p.p.m.): 6.70 singlet, (CH3)3 N; 6.89, triplet, CH2,

[10] = in vivo; set-up: species or system white mice; conditions: mouse, ip
Description: (§4) The toxicological study of 3-(2,2,2-trimethylhydrazinium)-propionate on white mice weighing 20-25 g has shown that with a single peroral administration to the animals in doses of up to 23,000 mg/kg the preparation causes no death of the animals.

[11] = test system: white mice; assay: in vivo; conditions: mouse
Description: as §4

[12] = 0.001% of the active principle, day 4
[13] = 0.001% of the active principle, day 8
[14] = 0.001% of the active principle, day 12
[15] = 0.001% of the active principle, day 16
[16] = 0.001% of the active principle, day 20
[17] = 0.01% of the active principle, day 4
[18] = 0.01% of the active principle, day 8
[19] = 0.01% of the active principle, day 12
[20] = 0.01% of the active principle, day 16
[21] = 0.01% of the active principle, day 20

C[N+](C)(C)NCCC(=O)[O-] [3-(2,2,2-trimethylhydrazinium)-propionate]
heavier than the microbless pig sucklings given no growth stimulant ([1]; 0.04% by weight, 2 months' age): 17.2%
heavier than the sucklings grown under nonsterile conditions and given no growth stimulator ([1]; 0.04% by weight, 2 months' age): 18.2%
Animal weight at the 2-months' age ([1]; microbless mini-pigs, 0.04% by weight of feedstuff, untreated microbless 3,271 ± 385, ordinary 3,244 ± 335): 3,833 ± 348 g
chicks heavier by the end of the 34-days' period [2]: 12.9%
Average body weight of chicks, aged 30 days ([2]; control 261.9): 268.9 g
Average mass gain for the test time ([2]; control 313 ± 3): 353 ± 8 g
Average body weight of chicks, aged 40 days ([2]; control 364.3): 404.8 g
Average body weight of chicks, aged 6 days ([2]; test beginning): 51.0 g
Percentage to the control ([2]; mass gain, control = 100.0): 112.9%
Weight on the weighing day [3, 12]: 175 g
Weight on the weighing day [3, 13]: 189 g
Weight on the weighing day [3, 14]: 210 g
Weight on the weighing day [3, 15]: 231 g
Weight on the weighing day [3, 16]: 248 g
Weight on the weighing day [3, 17]: 169 g
Weight on the weighing day [3, 18]: 175 g
Weight on the weighing day [3, 19]: 189 g
Weight on the weighing day [3, 20]: 215 g
Weight on the weighing day [3, 21]: 229 g
Weight on the weighing day ([3]; 0.1% of the principle, day 4): 155 g
Weight on the weighing day ([3]; 0.1% of the principle, day 8): 161 g
Weight on the weighing day ([3]; 0.1% of the principle, day 12): 174 g
Weight on the weighing day ([3]; 0.1% of the principle, day 16): 187 g
Weight on the weighing day ([3]; 0.1% of the principle, day 20): 203 g
body weight gain ([3]; active principle 0.001% by weight of the dry feedstuff): 13.5%
body weight gain ([3]; active principle 0.101% (so in the source) by weight of the dry feedstuff): 9%
specific gravity of grain crops ([4]; grain crops): increased
yield gain of crops ([4]; grain crops): 15-30%
increase in the stem diameter of crops ([4]; oats, barley, rye, wheat): 15%
stability against lodging ([4]; oats, barley, rye, wheat): improving their stability against lodging
growth-controlling effect ([4]; plants): clearly pronounced growth-controlling effect
growth-stimulating activity ([5]; animals and fowl): clearly pronounced growth-stimulating activity
daily weight gain ([5]; depending on the variety of animals and fowl): 8-24%
metabolism ([5]; test animals and fowl): metabolism is improved
reduction of the rate of feedstock consumption per weight gain unit ([5]; test animals and fowl): 7-15%
Average daily weight gain, percent of the control [6]: 112.4% of the control
Feedstuff consumption per 1 kg of the body weight gain, % of control [6]: 92.9 % of control
weight gain higher as compared to the control group animals [6]: 7.4 kg
Feedstuff consumption per 1 kg of the body weight gain ([6]; control 4.38): 4.07 feeding units
Body weight gain during the test period ([6]; control 59.0 ± 2.1): 66.4 ± 3.6 kg
Average body weight by the test end ([6]; control 74.0 ± 3.2): 88.2 ± 4.0 kg
Feedstuff consumption during the test period ([6]; control 285.5): 270.7 feeding units
Average daily weight gain ([6]; control 484 ± 17): 544 ± 32 g
reduction of consumption of feeding units per kilogram of the weight gain ([6]; vs control): 7.1%
increase of body weight gain of the rats ([7]; 0.001% by weight of the daily diet): 12.5%
Weight on the day of weighing [7, 12]: 76 g
Weight on the day of weighing [7, 13]: 99 g
Weight on the day of weighing [7, 14]: 131 g
Weight on the day of weighing [7, 15]: 154 g
Weight on the day of weighing [7, 16]: 164 g
increase of body weight gain of the rats ([7]; 0.01% by weight of the daily diet): 12%
Weight on the day of weighing [7, 17]: 79 g
Weight on the day of weighing [7, 18]: 93 g
Weight on the day of weighing [7, 19]: 125 g
Weight on the day of weighing [7, 20]: 139 g
Weight on the day of weighing [7, 21]: 158 g
effect on weight gain of the rats ([7]; 0.1% by weight of the daily diet): substantially did not affect the weight gain
Weight on the day of weighing ([7]; 0.1% of the active principle, day 4): 76 g
Weight on the day of weighing ([7]; 0.1% of the active principle, day 8): 95 g
Weight on the day of weighing ([7]; 0.1% of the active principle, day 12): 98 g
Weight on the day of weighing ([7]; 0.1% of the active principle, day 16): 107 g
Weight on the day of weighing ([7]; 0.1% of the active principle, day 20): 129 g
pathology of parenchymatous organs and peripheral blood ([7]; 0.1 to 0.001% by weight of the daily diet, perorally 10 days): No pathology was observed
Average body weight of chicks, aged 30 days [8]: 289.4 g
weight gain compared to the control chicks ([8]; 34 days): 7.7%
Average gain for the test time ([8]; 34 days, control 364.5 ± 10.1): 392.7
Average body weight of chicks, aged 40 days ([8]; end of 34 days, control 412.2 g): 440.5 g
Average body weight of chicks, aged 6 days ([8]; test beginning (6 days of age)): 47.8 g
Percentage to the control ([8]; average gain, control = 100.0): 107.7%
solubility in ethanol and methanol ([9]; ethanol and methanol): well soluble
solubility in water ([9]; water): very readily soluble
NOAEL [10]: ≥ 10000 mg/kg
single peroral dose causing no death of the animals [11]: up to 23,000 mg/kg

Reference: patent US4481218A, “3-(2,2,2-Trimethylhydrazinium)propionate and method for the preparation and use thereof” (Institut Organicheskogo Sinteza Akademii Nauk Latviiskoi SSR, priority 1978, dated 1984)
